According to PMC3826612 (Talanta, 2013):

Biological target: acetylcholinesterase from Electrophorus electricus (eelAChE) immobilized on magnetic beads (Electrophorus electricus, UniProt O42275)
Assay: Ligand fishing assay using eelAChE-MB
Type: binding
Conditions: 100 nM reference compounds, individually and as a mixture

Sequence of acetylcholinesterase from Electrophorus electricus (eelAChE) immobilized on magnetic beads (O42275 24-633): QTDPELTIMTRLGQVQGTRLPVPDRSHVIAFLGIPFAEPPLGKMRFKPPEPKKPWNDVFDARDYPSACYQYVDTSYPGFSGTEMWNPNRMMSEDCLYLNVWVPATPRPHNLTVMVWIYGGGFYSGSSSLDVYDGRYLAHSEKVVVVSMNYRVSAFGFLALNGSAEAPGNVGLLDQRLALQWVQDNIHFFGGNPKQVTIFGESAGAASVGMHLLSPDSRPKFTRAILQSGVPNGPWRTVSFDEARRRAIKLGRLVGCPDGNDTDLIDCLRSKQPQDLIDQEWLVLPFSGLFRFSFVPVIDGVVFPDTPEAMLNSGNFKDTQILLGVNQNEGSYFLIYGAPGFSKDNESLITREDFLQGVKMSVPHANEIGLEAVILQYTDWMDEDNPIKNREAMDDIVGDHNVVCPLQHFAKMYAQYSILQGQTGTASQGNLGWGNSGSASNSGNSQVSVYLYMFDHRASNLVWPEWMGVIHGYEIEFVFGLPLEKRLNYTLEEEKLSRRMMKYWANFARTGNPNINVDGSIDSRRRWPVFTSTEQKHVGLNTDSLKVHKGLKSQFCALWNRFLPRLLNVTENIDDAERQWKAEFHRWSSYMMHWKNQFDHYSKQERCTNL

Row | Structure (SMILES) | Presence in supernatants S-1 (unbound) and S-2 (eluted)
1 | CNC1(c2ccccc2Cl)CCCCC1=O (centres unmarked) [ketamine] | only present in S-1
2 | CC(CCc1ccccc1)NCC(O)c1ccc(O)c(C(N)=O)c1 (centres unmarked) [labetalol] | only present in S-1
